Measurements from PubChem BioAssay (NCI).
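In this assay, cells in 96-well plates receive the compound at five concentrations for 48 hours. Endpoints are linearly interpolated between the surrounding concentrations. GI50 = concentration required for 50% inhibition of growth. TGI marks complete inhibition of growth.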

Key:
Test in all cases: NCI tumour cell line growth inhibition, 48 h
[1] = test system: 786-0 renal
[2] = test system: ACHN renal
[3] = test system: BT-549 breast
[4] = test system: HCT-15 colon
[5] = test system: HOP-62 NSCLC
[6] = test system: HOP-92 NSCLC
[7] = test system: PC-3 prostate
[8] = test system: SK-MEL-2 melanoma
[9] = test system: SN12C renal
[10] = test system: SNB-75 CNS

Row | SMILES | GI50 [1] [µM] | TGI [1] [µM] | GI50 [2] [µM] | TGI [2] [µM] | GI50 [3] [µM] | TGI [3] [µM] | GI50 [4] [µM] | TGI [4] [µM] | GI50 [5] [µM] | TGI [5] [µM] | GI50 [6] [µM] | TGI [6] [µM] | GI50 [7] [µM] | TGI [7] [µM] | GI50 [8] [µM] | TGI [8] [µM] | GI50 [9] [µM] | TGI [9] [µM] | GI50 [10] [µM] | TGI [10] [µM]
1 | COc1ccc(-n2sc(=O)n(Cc3ccc(COC(=O)C(C)c4ccc(CC(C)C)cc4)cc3)c2=O)cc1 (configuration not stated) | 6.13 | 12.9 | 0.996 | 2.05 | 2.91 | 9.37 | 1.1 | 2.86 | 8.84 | 21.1 | 1.01 | 3.14 | 5.63 | 12.8 | 8.01 | 17 | 2.83 | 9.49 | 5.95 | 12.2
2 | CCN1C(=O)N(CC)C2C1NN=c1s/c(=C\c3ccccc3)c(=O)n12 (configuration not stated) | 0.874 | > 100 | 0.199 | > 100 | 0.199 | > 100 | 0.0692 | > 100 | 0.377 | > 100 | 29.7 | > 100 | 0.157 | > 100 |  | > 100 | 0.511 | > 100 | 0.0487 | 
3 | CSc1ccc(C2=NN(C(=O)c3ccc(N)cc3)C(c3ccc(F)cc3)C2)cc1 (configuration not stated) | 13.5 | 27.1 | 7.35 | 19.7 | 12.3 | 28.1 | 3.28 | 14.4 | 16 | 29.8 | 2.36 | 17.7 | 4.5 | 19.1 | 21.1 | 39.9 | 2.49 | 10.2 | 14.2 | 28.1
4 | CS[C@@]1(C(=O)Nc2ccc3[nH]nc(-c4ccc(OC(C)C)nc4)c3c2)CCN(CC(=O)N2CC=C(c3ccc(-c4ncn(C)n4)cc3)CC2)C1 | 5.27 | > 100 | 37.8 | > 100 | 9.43 | > 100 | 2.27 | > 100 | 0.378 | > 100 | 0.228 | 1.66 | 6.56 | > 100 | 0.0571 | 1.11 | > 100 | > 100 | > 100 | > 100
5 | N#Cc1c(Oc2ccc(F)c(NC(=O)Cc3cccc(C(F)(F)F)c3)c2)ccc2nc(NC(=O)C3CC3)sc12 | 1.33 | > 100 | 0.801 | > 100 | 2.71 | > 100 | 0.261 | > 100 | 0.472 | > 100 | 0.278 | 2.19 | 1.56 | > 100 | 0.108 | 0.83 | 1.26 | > 100 | 1.1 | > 100
6 | CN(C)CCOc1nc2ccccc2c2c1-c1ccc(Cl)cc1C2=O | 0.889 | 3.26 | 0.419 | 1.72 | 2.01 | 4.59 | 0.464 | 1.92 | 1.21 |  | 0.748 | 12.3 | 1.34 | 7.69 | 2.34 | 4.68 | 0.389 | 2.36 | 1.22 | 2.62
7 | CCN(CC)c1ccc2nc3c4ccccc4c(=NC(=O)c4ccccc4-c4c5ccc(N(CC)CC)cc5[o+]c5cc(N(CC)CC)ccc45)cc-3oc2c1 | 2.41 | 6.68 | 3.97 | 13.7 | 14 | 30.8 | 1.42 | 3.9 | 1.81 | 4.53 | 3.51 | 19.4 | 1.97 | > 20.6 | 3.4 | 9.15 | 2.13 | 6.14 | 8.27 | 23.5
8 | CCc1ccccc1-n1c(N)c(C#N)c(-c2ccc(OC)c(OC)c2)c(C#N)c1=O | 18.8 | 33.3 | 19.7 | 53.7 | 19.4 | 49.5 | 37.4 | > 100 | 17.1 | 34.3 | 0.283 | 29 | 15.4 | 32.8 | 25.8 | 80.6 | 19 | 45.1 | 17.8 | 32.1
9 | COc1ccc(NC(=O)O[C@H]2[C@H](O[C@H]3[C@@H](O)COC(O[C@H]4C[C@H]5[C@@H]6CC=C7C[C@@H](O)CC[C@]7(C)[C@H]6CC[C@]5(C)[C@H]4[C@H](C)C(=O)CCC(C)C)[C@@H]3OC(C)=O)OC[C@@H](O)[C@@H]2O)cc1 (some centres not stated) | < 0.01 | 11.3 | 0.118 | > 100 | < 0.01 | 11.3 | 0.0735 | 1.23 | < 0.01 | 1.02 | < 0.01 | 2.03 | < 0.01 | 4.87 | < 0.01 | 0.192 | 11.4 | > 100 | < 0.01 | 6.88
10 | COc1cc(C2C(C#N)=C(N)Oc3cc4c(cc32)OCO4)cc2c1OCO2 (configuration not stated) | 0.597 | > 90.9 | 2.3 | > 100 | 1.8 | 29.5 | 0.446 | > 100 | 0.393 | > 100 | 0.407 | 46.8 | 0.278 | > 100 | 0.525 | > 100 | 0.599 | > 100 | 0.178 | > 100
11 | N#CSCC(=O)c1ccc(Cl)cc1 | 4.96 | 21.3 | 5.55 | 19.9 | 2.69 | 11.4 | 2.85 | 32.2 | 5.19 | 28.8 | 6.02 | 29 | 3.95 | 57.5 | 5.45 | 25.7 | 3.69 | 19 | 2.75 | 22.2
12 | Cc1c(N2C(=O)/C(=C\c3ccc(N(C)C)cc3)N=C2c2ccccc2)c(=O)n(-c2ccccc2)n1C | > 100 | > 100 | > 100 | > 100 | 63.7 | > 100 | > 100 | > 100 | > 100 | > 100 | 31.8 | > 100 | 29.7 | > 100 | > 100 | > 100 | > 100 | > 100 | 60.2 | > 100
